Experimental data as given in patent publication US5521293A (Lever Brothers Company, Division of Conopco, Inc., priority 1995, dated 1996).

Legend:
Type in all cases: physicochemical
Water solubility = conditions: in words
[1] = Krafft point of aqueous dispersion of aldonamide; conditions: 0.1% in water by weight
Method: The temperature at and above which surfactants begin to form micelles instead of precipitates is referred to as the Krafft point (Tk) and at this temperature the solubility of a surfactant becomes equal to its CMC (numerical value at which micelles are formed).
The Krafft point was measured by preparing 650 ml of a 0.1% or 1.0% dispersion of aldonamide in water by weight. If the surfactant was soluble at room temperature, the solution was slowly cooled to 0° C. […] (less than zero). If it precipitated out of solution, the temperature at which precipitation occurs was taken as the Krafft point.
If the surfactant was insoluble at :room temperature, the dispersion was slowly heated until the solution became homogeneous. It was then slowly cooled until precipitation occurred. The temperature at which the surfactant precipitates out of solution upon cooling was taken as the Krafft point.

Ross-Miles foam height = conditions: 0.1% aldonamide, 40° C. (or about 5°-10° C. above Krafft point if not soluble), 0 ppm hardness
Method: Since most of the foaming data on surfactants is typically obtained by the Ross-Miles Foam Height Assay (Ross, J. and Miles, G. D. Am Soc. for Testing Material Method D1173-63 Philadelphia, Pa. (1953); Oil & Soap (1958) 62:1260) the foaming ability of these surfactants were acquired using this method.
In the Ross-Miles method, 200 mL of a surfactant solution contained in a pipette of specified dimensions with a 2.9-mm-i.d. orifice is allowed to fall 90 cm onto 50 mL of the same solution contained in a cylindrical vessel maintained at a given temperature by means of a water jacket. The height of the foam produced in the cylindrical vessel is read immediately after all the solution has run out of the pipette and then again after a given amount of time.
Using this method, the foam production (initial foam height in mm) and foam stability (final foam height after 10 minutes in mm) were measured at 0.1% aldonamide concentration, 40° C. and 0 ppm (parts per million) hardness. Aldonamides that were not soluble at 40° C. were measured at about 5°-10° C. above their Krafft points.

water solubility (Water solubility)	Krafft Point (0.1%) [1]	Foam Height Final (Ross-Miles foam height; after 10 minutes)	Foam Height Initial (Ross-Miles foam height; initial)	Compound
Insoluble	> 100 °C	–	–	CCCCCCCCCCCCNC(=O)[C@@H](O)[C@H](O)[C@H](O)[C@@H](O)CO [K, C12 L-Galactonamide]
Insoluble	> 100 °C	–	–	CCCCCCCCCCCCNC(=O)[C@H](O)[C@@H](O)[C@@H](O)[C@H](O)CO [J, C12 D-Galactonamide]
Insoluble	> 100 °C	–	–	CCCCCCCCCCCCNC(=O)[C@H](O)[C@H](O)[C@@H](O)[C@@H](O)CO [L, C12 L-Mannonamide]
Insoluble	> 100 °C	–	–	CCCCCCCCCCCCNC(=O)[C@H](O)[C@H](O)[C@@H](O)[C@@H](O)[C@H](O)CO [GG, C12 D-Glycero-L-Mannoheptonamide]
–	68 °C	97 mm	239 mm	C12 -C15 Oxypropyl D-Glucoheptonamide [LL]
